The source of these data is patent US10004222B2, “Small molecule ice recrystallization inhibitors and methods of use thereof” (THE UNIVERSITY OF OTTAWA, priority 2012, dated 2018).

Where “and” joins values, the source holds several entries; their conditions need not be identical. Equal entries are not always repeated. Where two headings read alike, the source gives them in different places. Non-standard residues stand in square brackets, D forms with d. Residues, ends and D or L forms follow the SMILES beside them. *: point of attachment. X1 = O=C(C[C@H]1OC(CO)[C@H](O)[C@H](O)C1O)*; Orn = NCCC[C@H](N)C(=O)O

For one data set, the system named is Tf1-α cells. Briefly: cryopreservation of Tf1-α cells, viability/apoptosis by flow cytometry (7-AAD, Annexin V). The class given is cell-based. Particulars: stored at −196° C. for 48 hours. The method, then:
Tf1-α cells were cultured to a final concentration of 2-3×10^6 cells/mL. Three million cells were transferred into cryovials and media were removed by aspiration after centrifugation at 1000 rpm for five minutes. 100 μL of RPMI media (10% FBS) supplemented with the cryopreservative of interest was added to the cryovial and vortexed. The cryovials were cooled at a rate of −1° C./min for 24 hours to −80° C. before being transferred to a liquid nitrogen dewar for storage until analysis.
Cryovials were thawed under fast thaw conditions (submerged in 37° C. water bath). The cells were then diluted to a concentration of 3×10^6 cells/mL with 1× Annexin V Binding Buffer and a cell count was obtained by hemacytometer (to obtain cell recovery). A 400 μL aliquot was transferred to a flow cytommetry tube. 10 μL of each Annexin V FITC (for apoptosis) and 7-AAD (for viability) dyes were added, the tube was vortexed and allowed to incubate in the dark for 15 minutes. The solution was diluted to 1 mL with 1× Annexin V Binding Buffer, vortexed and analyzed by flow cytommetry. […] With 2% DMSO, cell viability reached about 45%, and with 10% DMSO, cell viability reached around 78%.

The test system of data set [1] is CD34+ cells (hematopoietic stem cells). The data set is described as follows: colony forming unit (CFU) assay after cryopreservation of umbilical cord blood. The class given is cell-based, human. The method, then:
(§1) Aliquots of LC (50,000 CD34^+ cells) are added to 2.0 mL cryovials. For each experiment, four cryovials are prepared (two for post-thaw viability analysis using flow cytometry and two for functionality analysis using the colony forming unit assay). Cryovials are kept on ice until placement in −80° C. freezer. Cryovials are centrifuged at 400 g and 10° C. for 5 minutes to pellet cells. After centrifugation, the time taken until placement in −80° C. freezer should not exceed 10 minutes. Supernatant is removed by aspiration or by decanting, but preferably by aspiration. Plasma (volume depends on desired cryosolution concentration) is added and cells are suspended by pipetting. Pre-made cryosolutions (see Cryosolutions) are added (volume depends on desired cryosolution concentration) and mixed by pipetting. Cryovials are placed in a Mr. Frosty® rate controlled freezing container which is then placed in a −80° C. freezer for 24 hours. By placing the cryovials in the freezing container, their contents undergo a cooling rate of about −1° C. per minute. After 24 hours, the cryovials are transferred to a liquid nitrogen dewar for storage until thawed for analysis.
(§2) Cryosolutions are prepared in distilled autoclaved water supplemented with 0.9% saline and 5% dextran for cryopreservation experiments and diluted with different volumes of plasma in cryovials depending on desired concentration of ice recrystallization inhibitor. N-(4-chlorophenyl)-D-gluconamide (4a) and N-(2-fluorophenyl)-D-gluconamide (2a) are prepared at 25 mM and N-(4-methoxyphenyl)-D-gluconamide (3a) and N-(2,6-difluorobenzyl)-D-gluconamide (1b) are prepared at 55 mM. 100, 50, 33 or 20 μL of 25 mM N-(4-chlorophenyl)-D-gluconamide (4a) or N-(2-fluorophenyl)-D-gluconamide (2a) are added to cryovials containing 50,000 CD34^+ cells suspended in 0, 50, 67, or 80 μL of plasma, respectively, for a final IRI concentration of 25, 12.5, 8 or 5 mM, respectively. 100, 50, 33 or 20 μL of 55 mM N-(4-methoxyphenyl)-D-gluconamide (3a) or N-(2,6-difluorobenzyl)-D-gluconamide (1b) are added to cryovials containing 50,000 CD34^+ cells suspended in 0, 50, 67, or 80 μL of plasma, respectively, for a final IRI concentration of […], 18 or 11 mM, respectively.
Cryovials are thawed in a 37° C. water bath and diluted with 900 μL of IMDM (10% FBS, 1% penicillin/streptomycin). Cryovials are placed on ice until washed. Samples are mixed by pipetting and 80 μL is transferred to a 15 mL Falcon tube. 5 mL of Iscove's Modified Dulbecco's Medium (IMDM) supplemented with 10% fetal bovine serum (FBS) is added and this mixture is centrifuged at 1100 rpm for six minutes to yield a cell pellet and a supernatant. The supernatant is removed by aspiration and the cell pellet is resuspended in 1 mL IMDM (2% FBS) to form a suspension. The suspension is mixed by pipetting. 150 μL of this cell suspension is added to 3 mL Methocult™ media and plating is performed in accordance with manufacturer's instruction. The suspension with Methocult™ media is mixed adequately by vortexing for 20 seconds. The contents are allowed to settle and bubbles are allowed to subside before plating (approximately 5-10 minutes). Using a 3 mL syringe and 16 gauge blunt needles, 2.5 mL of the cell suspension in Methocult™ is taken from the bottom. 1 mL of this 2.5 mL is added to two 5 mL cell culture dishes. The dishes are swirled to ensure cells in Methocult™ medium coat the entire bottom of the dish. A third 5 mL dish is prepared to contain distilled autoclaved water without a lid. These three 5 mL dishes are placed in a 100 mL plate; two 5 mL dishes contain 1 mL of cell suspension in Methocult™ medium with the lid on and one containing distilled autoclaved water with the lid off. The lid is placed on the 100 mL plate and stored in a 37° C. incubator (5% CO2) for two weeks.

For data set [2] the test system is unchanged. The data set is described as follows: post-thaw viability of CD34+ cells of cryopreserved umbilical cord blood, flow cytometry. The class given is cell-based, human. The method, then: Whole umbilical cord blood (UCB) should be stored at room temperature (15-25° C.) and processed within 48 hrs of collection. UCB is removed from collection bag and spilt in equal parts into 50 mL Falcon tubes. No more than 25 mL of UCB should be added per Falcon tube. UCB is diluted with 6% hetastarch (Hespan) to obtain a final concentration of 1% hetastarch and incubated for 10 minutes at room temperature. The tubes are then centrifuged at 50 g at 10° C. for 15-20 minutes, depending on volume. The centrifuge should not brake to stop. For total volumes of 30 mL, 15-17 minute centrifugation is utilized and for total volumes of 35 mL, 17-20 minute centrifugation is utilized. The supernatant and buffy coat (plasma and leukocytes) are removed carefully (not collecting RBCs) from the tubes and collected into new 50 mL Falcon tubes. These tubes are centrifuged at 400 g and 10° C. for 10 mins to pellet cells. The centrifuge brake can now be utilized. Plasma is removed and kept in new 50 mL Falcon tubes on ice. The cell pellets resuspended and combined in plasma to a total volume of 20 mL to generate leukocyte concentrate (LC). The LC is kept on ice for the duration of its use. Total mononuclear (CD45^+) and CD34^+ (hematopoetic stem cells) cell concentrations and viability are determined by flow cytometry (see Flow Cytometry procedure below). Aliquots of LC (50,000 CD34^+ cells) are utilized for cryopreservation experiments (see Cryopreservation Experiments procedure below).
as §1, §2
Total mononuclear cell (CD45+) and progenitor cell (CD34+) viability is assessed by flow cytometry using International Society of Hematotherapy and Graft Engineering (ISHAGE) guidelines (J. Hematother. Stem Cell Res. 1996, 5, 213-226). […]

The conditions of data set [3]: previously demonstrated; cited from earlier work.
The test system of data set [4] is human embryonic liver cells. The settings on record: compared with DMSO; cited from earlier work.
For data set [5] the following is noted: previously demonstrated; cited from earlier work. This is another data set of the same source.
The nature of data set [6]: solubility and gelation in water, PBS. It counts as physicochemical.
Data set [7] in a line: thermal hysteresis (TH) activity and dynamic ice shaping, Clifton Nanoliter Osmometer. Particulars: 0.01 mg/mL. How it is done: As both compound 4 (at 22 mM) and compound 5 (at 0.5 mM) are novel potent low molecular weight inhibitors of ice recrystallization, whether they were interacting directly with the ice lattice was investigated. Carbohydrate derivatives (compounds 3-6) were examined for TH activity using a Clifton Nanoliter Osmometer. See Tam, R. et al. (2009) “Solution Conformation of C-Linked Antifreeze Glycoprotein Analogues and Modulation of Ice Recrystallization” J. Am. Chem. Soc. 131:15747-15753; Tam, R. et al. (2008) “Hydration Index—A Better Parameter for Explaining Small Molecule Hydration in Inhibition of Ice Recrystallization” J. Am. Chem. Soc. 130: 17494-17501.
In this assay a single droplet of the sample in water was suspended in the center of an oil-filled well in a sample holder plate. The sample was then rapidly frozen using a thermoelectrically controlled microscope stage, then the temperature was raised and the sample melted until only a single ice crystal remained. Once a single ice crystal was obtained, its growth and behavior upon increasing/decreasing the temperature was viewed under a microscope.
The above synthesized C-linked AFGP analogues and carbohydrate derivatives were assessed for TH activity at 10 mg/mL. Compounds 3-6 could not be assessed for TH activity at this concentration due to their amphiphilic nature. […]

Data set [8] can be described thus: splat cooling ice recrystallization inhibition (IRI) assay. Particulars: 0.5 mM. How it is done:
In this assay, the area of ice crystals are measured after a 30 minute annealing time at −6.4° C. and compared to a positive control for ice recrystallization resulting in a quantitative measurement of the mean ice grain size. For a positive control, a phosphate buffered saline (PBS) solution was utilized. All samples were normalized to the PBS positive control. The ice recrystallization inhibition activity of the carbohydrate-based non-ionic surfactants n-octyl-β-D-glucopyranoside (compound 3) and n-octyl-β-D-galactopyranoside (compound 4) is shown in FIG. 1.
In this assay, the area of ice crystals are measured after a 30 minute annealing time at −6.4° C. and compared to a positive control for ice recrystallization resulting in a quantitative measurement of the mean ice grain size. For a positive control, a PBS solution was utilized. All samples were normalized to the PBS positive control.
N-aryl-D-gluconamides (3a), (2a), (4a), and (1b) are a class of low molecular weight carbohydrate-based compounds. The ice recrystallization inhibition activity of (3a), (2a), (4a), and (1b) was assessed using a “splat cooling” assay. In this assay, the area of ice crystals are measured after a 30 minutes annealing time at −6.4° C. and compared to a positive control for ice recrystallization resulting in a quantitative measurement of the mean ice grain size. For a positive control, PBS was utilized. All samples were normalized to the PBS positive control.

[9] abbreviates: 10% DMSO (⅕ dilution with plasma), UCB Unit 27.
Where [10] appears, read: 10% DMSO (⅕ dilution with plasma), UCB Unit 28.
[11] abbreviates: 10% DMSO only, IRI None, post-thaw, 14 days in Methocult.

Consider `C[S+](C)[O-]` [DMSO, Dimethyl sulfoxide, reference compound], for which the cell viability entry in the data set with Tf1-α cells (2% DMSO alone) is “about 45%”; in the data set with Tf1-α cells (10% DMSO alone), “around 78%”. Besides, the “Tot. No. Colonies” value in data set [1] (10% DMSO (no plasma)) was 47 and 34; in data set [1] (setting [9]), 56 and 35; in data set [1] (setting [10]), 36. The compound further registered a BFU-E in data set [1] (setting [11]) of 15.6. In data set [1] (setting [11]), the CFU-G turned out to be 5.1. For the same compound, in data set [1] (setting [11]), the CFU-GEMM is listed as 2.8. Besides, the CFU-GM in data set [1] (setting [11]) came to 6.8. In data set [1] (setting [11]), this compound displayed a CFU-M of 0.7. The “Total Number of Colonies” value in [1] (setting [11]) was 31. The “Tot. No. Colonies, AVG” value in [1] (average of control solutions) is on record as 28. The “Post-Thaw Viab.” value in data set [2] (10% DMSO (no plasma)) was found to be 83%; in data set [2] (setting [9]), 88%; in data set [2] (setting [10]), 87%.

In the case of `N[C@@H](CCCNC(=O)C[C@H]1OC(CO)[C@H](O)[C@H](O)C1O)C(=O)NCC(=O)NCC(=O)N[C@@H](CCCNC(=O)C[C@H]1OC(CO)[C@H](O)[C@H](O)C1O)C(=O)NCC(=O)NCC(=O)N[C@@H](CCCNC(=O)C[C@H]1OC(CO)[C@H](O)[C@H](O)C1O)C(=O)NCC(=O)NCC(=O)N[C@@H](CCCNC(=O)C[C@H]1OC(CO)[C@H](O)[C@H](O)C1O)C(=O)NCC(=O)NCC(=O)NCC(=O)O` (some centres unmarked) [analog 1] (H-[Orn](X1)GG[Orn](X1)GG[Orn](X1)GG[Orn](X1)GGG-OH), the TH activity result in data set [3] was “do not exhibit TH activity”. The cryoprotective ability entry in [4] is reported as “as effective as a 2.5% solution of DMSO”. For the same compound, the “ice recrystallization inhibition activity” value in data set [5] is “potent inhibitors of ice recrystallization”.

`N[C@@H](CC[C@H]1OC(CO)[C@H](O)[C@H](O)C1O)C(=O)NCC(=O)NCC(=O)N[C@@H](CC[C@H]1OC(CO)[C@H](O)[C@H](O)C1O)C(=O)NCC(=O)NCC(=O)N[C@@H](CC[C@H]1OC(CO)[C@H](O)[C@H](O)C1O)C(=O)NCC(=O)NCC(=O)N[C@@H](CC[C@H]1OC(CO)[C@H](O)[C@H](O)C1O)C(=O)NCC(=O)NCC(=O)NCC(=O)O` (some centres unmarked) [analog 2]: the TH activity result in data set [3] was “do not exhibit TH activity”. The “ice recrystallization inhibition activity” value in data set [5] is recorded as “potent inhibitors of ice recrystallization”.

Turning to `CCCCCCCCNC(=O)[C@H](O)[C@@H](O)[C@H](O)[C@H](O)CO` [compound 5, N-octyl-D-gluconamide], in data set [6], the solubility result is “poor solubilities”. The dynamic ice shaping result in [7] is “do not exhibit this activity”. Also, the “ice recrystallization inhibition activity” value in data set [8] is “potent”.

Regarding `CCCCCCCCNC(=O)[C@H](O)[C@@H](O)[C@@H](O)[C@H](O)CO` [compound 6, N-octyl-D-galactonamide], the solubility result in data set [6] was “poor solubilities”. For the same compound, the dynamic ice shaping result in data set [7] is given as “do not exhibit this activity”. Also, the “ice recrystallization inhibition activity” value in data set [8] is recorded as “only moderate”.
